Laboratory results: patent US4588525A, “Prodrug compounds for dermal application” (Molecular Biosystems, Inc., priority 1984, dated 1986)

Experiments:
human lung fibroblasts = test: Inhibition of growth of human lung fibroblasts in culture; type: cell-based; conditions: for IC50: Homo sapiens, Fibroblast, growth inhibition 50%, usually 3-4 days, 10^4 cells/35 mm dish, Coulter counter, read-out: ID50 (the source's name)
Experimental: Drugs were evaluated by their ability to inhibit the growth of human lung fibroblasts in culture. Human lung fibroblasts were grown in Eagle's Minimal Essential Media (EMEM) which contained 10% fetal calf serum, 1X non-essential amino acids, and 250 units penicillin and 250 μg streptomycin/ml. Stock cultures of the cells were grown on 100 mm culture plates. For testing purposes, cells were removed from the stock plates with 3 mls trypsin/versene and after appropriate dilution in the culture medium were plated onto 35 mm dishes. Typically, cells were subcultured at 10^4 cells/35 mm dish in 1.5 mls of medium and allowed to attach for 24 hours before the addition of drugs. Triplicate plates were treated with drugs over a wide concentration range. In some cases, it was necessary to dissolve stock solutions of the drugs with 50% ethanol. In such cases, appropriate controls were included to assure that the ethanol had no adverse effects. In all cases, untreated triplicate control plates were employed in order to determine the cell population at the time of drug addition and at the time of experiment ccmpletion (usual 3-4 days). The number of cells on the test and control plates was determined by first removing the medium by aspiration followed by gentle washing with 1 ml phosphate buffered saline. Trypsin/versene (0.5 ml) was then added and the plates incubated at 37° C. for up to 15 minutes or until the cells became detached. One milliliter of EMEM which contained 1X non-essential amino acids was then added in order to neutralize the action of trypsin. The cells were then diluted into ISOTON II (Curtin Matheson Scientific, Houston, Tex.) and counted on a Coulter counter (Coulter Electronics, Hialeah, Fla.) according to the Coulter counter owner's manual.

cellular enzymes = test: Conversion by cellular enzymes to active 6-aminonicotinamide (interpretation of Table A); type: cell-based, human
Excerpt: Such cleavages might be exploited to retain local activity but to eliminate systemic toxicity.

[1] = in vivo; cited from earlier work
cancer = conditions: use questionable due to the CNS side effects; cited from earlier work
[2] = topical, unless accompanied by oral nicotinamide; cited from earlier work

For `COC(=O)CCC(=O)Nc1ccc(C(N)=O)cn1` [6-Aminonicotinamide-N^6 --succinate methyl ester], the IC50 (human lung fibroblasts) was 20 µM.

Work on `CCCCCCOC(=O)CCC(=O)Nc1ccc(C(N)=O)cn1` [6-Aminonicotinamide-N^6 --succinate hexyl ester] yielded an IC50 (human lung fibroblasts) of 20 µM.

In the case of `CCOC(=O)CCCCC(=O)Nc1ccc(C(N)=O)cn1` [6-Aminonicotinamide-N^6 --apidic acid ethyl ester], the IC50 (human lung fibroblasts) is reported as 30 µM.

In the case of `NC(=O)c1ccc(NC(=O)CCC(=O)O)nc1` [6-Aminonicotinamide-N^6 --succinic acid, 6-aminonicotinamide-N^6-succinic acid], the IC50 (human lung fibroblasts) is reported as 2000 µM and the “activity (inhibition of cell growth), in words” value (human lung fibroblasts; interpretation of Table A) is reported as “essentially inactive”.

Molecule `CCCCCCC(=O)Nc1ccc(C(N)=O)cn1` [N^6 --heptanoyl-6-aminonicotinamide] has an IC50 (human lung fibroblasts) of 20 µM.

With `NC(=O)c1ccc(NC(=O)CCC(=O)N2CCOCC2)nc1` [6-Aminonicotinamide-N^6-succinylmorpholidate] the “conversion by cellular enzymes to active 6-aminonicotinamide” value (cellular enzymes) was “readily converted” and the “efficiency of conversion compared with the other alkyl or ester analogues” value (cellular enzymes) was “more efficient”.

`CCCCOC(=O)CCC(=O)Nc1ccc(C(N)=O)cn1` [6-Aminonicotinamide-N^6 --succinate butyl ester] showed an IC50 (human lung fibroblasts) of 20 µM.

Work on `CCOC(=O)CCC(=O)Nc1ccc(C(N)=O)cn1` [6-Aminonicotinamide-N^6 --succinate ethyl ester] yielded an IC50 (human lung fibroblasts) of 5 µM.

With `NC(=O)c1ccc(NC(=O)CCC(=O)N2CCCCC2)nc1` [6-Aminonicotinamide-N^6-succinyl piperidate] the “conversion by cellular enzymes to active 6-aminonicotinamide” value (cellular enzymes) was “readily converted” and the “efficiency of conversion compared with the other alkyl or ester analogues” value (cellular enzymes) was “more efficient”.

For `NC(=O)c1ccc(N)nc1` [6-Aminonicotinamide, 6-aminonicotinamide], the “effectiveness against psoriasis compared with methotrexate” value [1] is given as “more effective against psoriasis than methotrexate”, the anti-cancer activity (cancer) is given as “anti-cancer activity” and the IC50 (human lung fibroblasts) is given as 2 µM. For the same molecule, the “central nervous system toxicity (CNS)” value [2] was “a central nervous system toxicity (CNS) may result”.
